# Assays:
# [1] = system: patients with moderate to-high-risk atrial fibrillation; assay: ENGAGE-AF TIMI-48 phase 3 study of edoxaban versus warfarin in atrial fibrillation
# NVAF patients = assay: Late phase-II trial targeting NVAF patient in Japan (thromboembolic and bleeding events, 12 weeks); type: in vivo, human; conditions: warfarin group (PT-INR adjusted to 2.0 to 3.0; 1.6 to 2.6 for 70 years or older), 12 weeks
# [2] = subgroup whose CLCR had become <30 mL/min during the trial, edoxaban 15 mg (N = 349), warfarin dose adjusted (N = 367)
# [3] = warfarin, dose-adjusted to INR 2.0 to 3.0
smiles,measurement,setting,value
"CC(=O)CC(c1ccccc1)c1c(O)c2ccccc2oc1=O (stereo not shown) [warfarin, reference compound]",ACM (all cause mortality): # of events,[1]; [2],13
same,Disabling Stroke: # of events,[1]; [2],3
same,Disabling Stroke: Event Rate,[1]; [2],0.48 %/yr
same,Fatal Bleed: # of events,[1]; [2],2
same,Fatal Bleed: Event Rate,[1]; [2],0.32 %/yr
same,Fatal SEE: # of events,[1]; [2],0
same,Fatal SEE: Event Rate,[1]; [2],0.00 %/yr
same,Fatal Stroke: # of events,[1]; [2],3
same,Fatal Stroke: Event Rate,[1]; [2],0.48 %/yr
same,"First Disabling or Fatal Stroke, Fatal SEE, LT or Fatal Bleed, or ACM: # of events",[1]; [2],21
same,"First Disabling or Fatal Stroke, Fatal SEE, LT or Fatal Bleed, or ACM: Event Rate",[1]; [2],3.36 %/yr
same,"First Stroke, SEE or TIA: # of events",[1]; [2],14
same,"First Stroke, SEE or TIA: Event Rate",[1]; [2],2.26 %/yr
same,"First Stroke, SEE, Major Bleed, or ACM: # of events",[1]; [2],49
same,"First Stroke, SEE, Major Bleed, or ACM: Event Rate",[1]; [2],8.04 %/yr
same,LT Bleed (life threatening): # of events,[1]; [2],5
same,LT Bleed (life threatening): Event Rate,[1]; [2],0.80 %/yr
same,Annualized rate of death from cardiovascular causes,[1]; [3],3.17%
same,Annualized rate of major bleeding,[1]; [3],3.43%
same,Annualized rate of the primary end point (stroke or systemic embolism) during treatment,[1]; [3],1.50%
same,"Rate of the key secondary end point (composite of stroke, systemic embolism, or death from cardiovascular causes)",[1]; [3],4.43%
same,"Incidence of bleeding events (major, clinically relevant non-major and minor bleeding in total)",NVAF patients,20.0%
